Reference: patent US6645976B1 (Eli Lilly and Company, priority 1994, dated 2003)
pIC50: −log10 of the molar value.

Key:
[1] = target: T1, recombinant human secreted phospholipase A2 (Homo sapiens, UniProt P14555); assay: sPLA2 Chromogenic Assay (Assay 1); type: biochemical; details: diheptanoyl thio-PC substrate, pH 7.5, 40° C. for 30 minutes, absorbance at 405 nanometers
T1 sequence (P14555 21-144): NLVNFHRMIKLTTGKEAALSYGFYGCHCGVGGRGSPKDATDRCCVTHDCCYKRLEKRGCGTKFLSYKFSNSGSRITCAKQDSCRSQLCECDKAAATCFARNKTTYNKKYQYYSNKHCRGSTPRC
Protocol: The following chromogenic assay procedure was used to identify and evaluate inhibitors of recombinant human secreted phospholipase A2. The assay described herein has been adapted for high volume screening using 96 well microtiter plates.
A measured volume of racemic dipheptanoyl thio PC supplied in chloroform at a concentration of 100 mg/ml is taken to dryness and redissolved in 10 millimolar TRITON X-100™ nonionic detergent aqueous solution. Reaction Buffer is added to the solution, then DTNB to give the Reaction Mixture.
The reaction mixture thus obtained contains 1 mM diheptanoyl thio-PC substrate, 0.29 mm Triton X-100™ detergent, and 0.12 mm DTMB in a buffered aqueous solution at pH 7.5.
1. Add 0.2 ml reaction mixture to all wells;
2. Add 10 ul test compound (or solvent blank) to appropriate wells, mix 20 seconds;
3. Add 50 nanograms of sPLA2 (10 microliters) to appropriate wells;
4. Incubate plate at 40° C. for 30 minutes;
All compounds were tested in triplicate. […] Each sample was titrated in triplicate and result values were averaged for plotting and calculation of IC50 values.

SMILES	melting point [°C]	pIC50 [1]
CCc1c(C(=O)C(N)=O)c2c(OCC(=O)OC)cccn2c1CC1CCCCCC1 [Compound 51d, 2-(8-(Carbomethoxymethyloxy)-3-cycloheptylmethyl-2-ethylindolizin-1-yl)glyoxylamide]	147 to 148	6.26
CCOC(=O)COc1cccn2c(Cc3ccccc3-c3ccccc3)c(CC)c(C(=O)C(N)=O)c12 [Compound 37d, (8-(Carbethoxymethyloxy)-2-ethyl-3-(o-phenylbenzyl)indolizin-1-yl)glyoxylamide]	127 to 129	7.89
CCc1c(C(=O)C(N)=O)c2c(OCC(=O)OC)cccn2c1Cc1sccc1-c1cccs1 [Compound 51l, 2-(8-(Carbomethoxymethyloxy)-2-ethyl-3-((3-thiophen-2-yl)thiophen-2-ylmethyl)indolizin-1-yl)glyoxylamide]	176 to 177	7.02
CCCCc1ccc(Cc2c(CC)c(C(=O)C(N)=O)c3c(OCC(=O)OC)cccn23)cc1 [Compound 51s, 2-(3-(p-n-Butylbenzyl)-8-(carbomethoxymethyloxy)-2-ethylindolizin-1-yl)glyoxylamide]	174 to 176	6.82
